# Measurements taken from US9120728B2, “Modulators of cortical dopaminergic- and NMDA-receptor-mediated glutamatergic neurotransmission” (INTEGRATIVE RESEARCH LABORATORIES SWEDEN AB, priority 2011, dated 2015).
# Experiments:
# Arc gene expression = experiment: Increase of Arc gene expression (Arc mRNA, real-time PCR) in rat striatum and cortex; format: in vivo; details: estimated ED50 on increase of Arc gene expression
# Experimental: To investigate potential effects of compounds of the present invention on cortical and striatal NMDA receptor related synaptic signalling, Arc mRNA induction was assessed upon acute administration of a compound of the present invention. […]
# Total RNA is prepared by the guanidin isothiocyanate method reported by Chomczynski & Sacchi [Chomczynski P & Sacchi N; Anal. Biochem. 1987 162 156-159]. […] The sample concentration was determined spectrophotometrically by a NanoDrop ND-1000. A quality indicator number and an integrity number of r-RNA were measured with an Experion (Bio-Rad) on random samples. […]
# For real-time PCR measurements, 0.7 μl of the cDNA reaction was amplified in a 25 μl reaction mixture containing 1×PCR buffer, 0.2 mM dNTP, 3.7 mM MgCl2, 0.15 mM SYBR green, 0.4 μM of each primer, and 1U JumpStart Taq DNA polymerase. Real-time PCR was measured on CFX96 (Biorad) using the following settings for all genes, 60 s pre-incubation at 95° C., followed by 40 cycles of denaturation at 95° C. for 10 s, annealing at 56° C. for 10 s, and elongation at 72° C. for 10 s.
# Initial DNA amounts were quantified by a standard curve constructed for every gene using 6 serial 4-fold dilutions of purified PCR products. […]
# Arc gene amounts were normalised using the geometric mean of the amounts of the two house-keeping genes assessed (HPRT and cyclophilin A). […]
# [1] = system: DOPAC (3,4-dihydroxyphenylacetic acid) in the rat striatum; experiment: Increase of DOPAC (3,4-dihydroxyphenylacetic acid) in the rat striatum after systemic administration; format: in vivo; details: sc, estimated ED50 on increase of DOPAC in rat striatum, dose range 0-100 μmol/kg s.c., curve fitting
# Excerpt: The increased turnover of dopamine in the terminal areas of the ascending dopaminergic projections of the mammalian brain can be illustrated by measuring of changes in biochemical indices in the brain with the characteristic features of dopamine antagonists, e.g. producing increases in concentrations of dopamine metabolites such as 3,4-dihydroxyphenyl-acetic acid (DOPAC) in the striatum.
# After the behavioural activity sessions, the rats are decapitated and their brains rapidly taken out and put on an ice-cold petri-dish. The limbic forebrain, the striatum, the frontal cortex and the remaining hemispheral parts of each rat are dissected and frozen. Each brain part is subsequently analyzed with respect to its content of monoamines and their metabolites.
# The monoamine transmitter substances (NA (noradrenaline), DA (dopamine), 5-HT (serotonin)) as well as their amine (NM (normethanephrine), 3-MT (3-methoxytyramine)) and acid (DOPAC (3,4-dihydroxyphenylacetic acid), 5-HIAA (5-hydroxyindoleacetic acid), HVA (homovanillic acid)) metabolites are quantified in brain tissue homogenates by HPLC separations and electrochemical detection
# The analytical method is based on two chromatographic separations dedicated for amines or acids. Two chromatographic systems share a common auto injector with a 10-port valve and two sample loops for simultaneous injection on the two systems. Both systems are equipped with a reverse phase column (Luna C18(2), dp 3 μm, 50×2 mm i.d., Phenomenex) and electrochemical detection is accomplished at two potentials on glassy carbon electrodes (MF-1000, Bioanalytical Systems, Inc.). The column effluent is passed via a T-connection to the detection cell or to a waste outlet. This is accomplished by two solenoid valves, which block either the waste or detector outlet. By preventing the chromatographic front from reaching the detector, better detection conditions are achieved. The aqueous mobile phase (0.4 ml/min) for the acid system contains citric acid 14 mM, sodium citrate 10 mM, MeOH 15% (v/v) and EDTA 0.1 mM. Detection potentials relative to Ag/AgCl reference are 0.45 and 0.60V. […] Detection potentials relative to Ag/AgCl reference are 0.45 and 0.65V.
# ED50 value for the increase of DOPAC in striatum is calculated by curve fitting. The evaluation is based on 40 animals over the dose range 0, 3.7, 11, 33 and 100 μmol/kg s.c. in two combined experiments. The DOPAC levels are normalised to control and fitted by least square minimization to the function “End-(End-Control)/(1+(dose/ED50)^slope)”. The four parameters (Control, End, ED50 and Slope) are fitted with the restrictions: ED50>0, 0.5<Slope<3, 350<End<400% of control. To estimate confidence levels for the parameters, the fit is repeated 100 times with a random evenly distributed squared weight (0 to 1) for every measurement value. Presented ED50-ranges cover 95% of these values.
compound,measurement,setting,value
"CCCNCCOc1cc(F)cc(S(C)(=O)=O)c1 [Example 1, N-[2-(3-fluoro-5-methylsulfonyl-phenoxy)ethyl]propan-1-amine]",ED50,"Arc gene expression; rat (prefrontal) cortex, evaluated to be below the lowest dose",< 11 µmol/kg
same,ED50,"Arc gene expression; sc, rat striatum, systemic administration, 0-100 μmol/kg s.c.",13 µmol/kg
same,ED50,[1],8.5 µmol/kg
